From article PMC3361708 (Cell Metabolism, 2012) come the findings set out here.

A word on the Km: it is the concentration of substrate that gives half-maximal velocity.

The target of the assay is T1, mAdpn (Mus musculus, UniProt Q91WW7).
T1 sequence (Q91WW7 1-413): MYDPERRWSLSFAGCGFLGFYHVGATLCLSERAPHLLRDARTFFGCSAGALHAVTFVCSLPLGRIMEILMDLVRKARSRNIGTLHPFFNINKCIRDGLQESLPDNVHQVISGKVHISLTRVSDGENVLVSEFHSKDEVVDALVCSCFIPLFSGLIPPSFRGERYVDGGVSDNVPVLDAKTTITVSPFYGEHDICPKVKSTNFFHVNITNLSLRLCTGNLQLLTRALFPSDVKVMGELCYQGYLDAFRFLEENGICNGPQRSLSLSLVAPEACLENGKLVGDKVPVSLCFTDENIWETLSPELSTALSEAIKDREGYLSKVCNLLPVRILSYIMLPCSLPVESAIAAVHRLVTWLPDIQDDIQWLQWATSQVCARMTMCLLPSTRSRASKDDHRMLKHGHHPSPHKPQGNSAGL
The assay is described as follows: radiometric LPAAT assay, TLC, Michaelis-Menten fit. To be noted: co-substrate LPA; labelled compound [1-14C]. Type of assay: biochemical.

As for `CCCCCCCC/C=C\CCCCCCCC(=O)SCCNC(=O)CCNC(=O)[C@H](O)C(C)(C)COP(=O)(O)OP(=O)(O)OC[C@H]1O[C@@H](n2cnc3c(N)ncnc32)[C@H](O)[C@@H]1OP(=O)(O)O` [oleoyl-CoA], the Km was 12.5 µM.
